Test results from patent US9198913B2, “Nitroimidazooxazines and their uses in anti-tubercular therapy” (priority 2009, dated 2015).
In brackets after ≈: the same amount, converted by molar mass.

Assays:
[1] = Stability to human liver microsomes; type: in vitro ADME; details: 1 μM, 37° C., 60 min, pooled human liver microsomes;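 note: parent compound quantified by LC-MS/MS against an internal standard, duplicates averaged, expressed relative to the 0 min sample taken as 100%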
[2] = In vivo pharmacokinetics in mice; details: CD-1 mice, oral, 40 mg/kg; for Cmax / half-life / Kp: mouse; for Cmax / half-life: in vivo, plasma; for half-life: read-out: t½ (h) plasma (converted); for Kp: lung/plasma, read-out: AUC ratio (lung/plasma);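 for all read-outs here: plasma and lung samples quantified by LC-MS/MS, dosing as a suspension in aqueous carboxymethylcellulose with Tween 80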
[3] = Stability to mouse liver microsomes; type: in vitro ADME; details: 1 μM, 37° C., 60 min, CD-1 mouse liver microsomes;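 note: analyte quantified by LC-MS/MS as ratio to internal standard peak area, mean of duplicates, 60 min value expressed relative to the 0 min level (100%)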
[4] = Water solubility (sonicated suspension, HPLC); type: physicochemical; details: in water; for solubility at 15 min: thermodynamic from solid;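 for all read-outs here: concentration in the clear supernatant quantified by HPLC peak area against a DMSO standard solution of the same compound, corrected for dilution and injection volume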
[5] = test system: M. tuberculosis Erdman; test: In vivo mouse chronic TB infection assay; set-up: species or system Mycobacterium tuberculosis; details: mice, oral 100 mg/kg, treatment beginning ~70 days after infection
[6] = test system: M. tuberculosis Erdman; test: In vivo mouse acute TB infection assay; set-up: species or system Mycobacterium tuberculosis; details: BALB/c mice; for In vivo efficacy vs PA-824, Acute: oral 100 mg/kg daily 5 days a week for 3 weeks from day 11 post-infection, ratio of average lung CFU reduction to that with PA-824

O=[N+]([O-])c1cn2c(n1)OC[C@@H](OCc1ccc(-c3ccc(OC(F)(F)F)c(F)c3)cc1)C2 [Compound 2, (6S)-6-{[3′-Fluoro-4′-(trifluoromethoxy)[1,1′-biphenyl]-4-yl]methoxy}-2-nitro-6,7-dihydro-5H-imidazo[2,1-b][1,3]oxazine]
Microsomes (% remaining, 1 h) Human [1]: 93%
melting point: 169 to 171 °C
AUC lung [2]: >513 µg·h/mL
Cmax [2]: 17100 ng/mL
half-life [2]: 20.5 h
Microsomes (% remaining, 1 h) Mouse [3]: 86%
solubility at 15 min [4]: 0.1 µg/mL (≈ 0.221 µM)

O=[N+]([O-])c1cn2c(n1)OC[C@@H](OCc1ccc(-c3ccc(C(F)(F)F)cn3)cc1)C2 [Compound 8, (6S)-2-Nitro-6-({4-[5-(trifluoromethyl)-2-pyridinyl]benzyl}oxy)-6,7-dihydro-5H-imidazo[2,1-b][1,3]oxazine]
Microsomes (% remaining, 1 h) Human [1]: 93%
melting point: 252 to 254 °C
AUC lung [2]: 67.3 µg·h/mL
Kp [2]: 3.3
Microsomes (% remaining, 1 h) Mouse [3]: 90%
Solubility [4]: 0.20 µg/mL (≈ 0.476 µM)

Cn1nc(-c2ccc(OC(F)(F)F)cc2)cc1CO[C@@H]1COc2nc([N+](=O)[O-])cn2C1 [Compound 11, (6S)-6-({1-Methyl-3-[4-(trifluoromethoxy)phenyl]-1H-pyrazol-5-yl}methoxy)-2-nitro-6,7-dihydro-5H-imidazo[2,1-b][1,3]oxazine]
Microsomes (% remaining, 1 h) Human [1]: 86%
AUC lung [2]: 92.4 µg·h/mL
Cmax [2]: 1660 ng/mL
half-life [2]: 6.6 h
Kp [2]: 4.7
In vivo efficacy vs PA-824, Chronic ([5]; ratio of average lung CFU reduction to that with PA-824): 0.9
Microsomes (% remaining, 1 h) Mouse [3]: 81%
solubility at 15 min [4]: 5.3 µg/mL (≈ 12.1 µM)

O=[N+]([O-])c1cn2c(n1)OC[C@@H](OCc1ccc(-c3ccc(OC(F)(F)F)cc3)cc1F)C2 [Compound 12, (6S)-6-{[3-Fluoro-4′-(trifluoromethoxy)[1,1′-biphenyl]-4-yl]methoxy}-2-nitro-6,7-dihydro-5H-imidazo[2,1-b][1,3]oxazine]
Microsomes (% remaining, 1 h) Human [1]: 93%
melting point: 160 to 162 °C
AUC lung [2]: 549 µg·h/mL
half-life [2]: 22 h
Kp [2]: 2.7
Microsomes (% remaining, 1 h) Mouse [3]: 85%
solubility at 15 min [4]: 1.4 µg/mL (≈ 3.09 µM)
In vivo efficacy vs PA-824, Acute [6]: 33

O=[N+]([O-])c1cn2c(n1)OC[C@@H](OCc1ccc(-c3ccc(C(F)(F)F)cn3)cc1F)C2 [Compound 14, (6S)-6-({2-Fluoro-4-[5-(trifluoromethyl)-2-pyridinyl]benzyl}oxy)-2-nitro-6,7-dihydro-5H-imidazo[2,1-b][1,3]oxazine]
Microsomes (% remaining, 1 h) Human [1]: 90%
melting point: 233 to 235 °C
AUC lung [2]: 148 µg·h/mL
Cmax [2]: 440 ng/mL
half-life [2]: 13.9 h
Kp [2]: 16
Microsomes (% remaining, 1 h) Mouse [3]: 77%
solubility at 15 min [4]: 1.2 µg/mL (≈ 2.74 µM)

O=[N+]([O-])c1cn2c(n1)OC[C@@H](OCc1cnc(-c3ccc(OC(F)(F)F)cc3)nc1)C2 [Compound 16, (6S)-2-Nitro-6-({2-[4-(trifluoromethoxy)phenyl]-5-pyrimidinyl}methoxy)-6,7-dihydro-5H-imidazo[2,1-b][1,3]oxazine]
Microsomes (% remaining, 1 h) Human [1]: 96%
melting point: 227 to 230 °C
AUC lung [2]: 131 µg·h/mL
Cmax [2]: 1160 ng/mL
half-life [2]: 23.1 h
Microsomes (% remaining, 1 h) Mouse [3]: 87%
Solubility [4]: 2.1 µg/mL (≈ 4.8 µM)

O=C(O[C@@H]1COc2nc([N+](=O)[O-])cn2C1)N1CCN(c2ccc(OC(F)(F)F)cc2)CC1 [Compound 20, (6S)-2-Nitro-6,7-dihydro-5H-imidazo[2,1-b][1,3]oxazin-6-yl 4-[4-(trifluoromethoxy)phenyl]-1-piperazinecarboxylate]
Microsomes (% remaining, 1 h) Human [1]: 82%
melting point: 166 to 168 °C
AUC lung [2]: 169 µg·h/mL
Microsomes (% remaining, 1 h) Mouse [3]: 85%
solubility at 15 min [4]: 17 µg/mL (≈ 37.2 µM)

O=[N+]([O-])c1cn2c(n1)OC[C@@H](OCc1ccc(-c3ccc(OC(F)(F)F)c(F)c3)cn1)C2 [Compound 22, (6S)-6-({5-[3-Fluoro-4-(trifluoromethoxy)phenyl]-2-pyridinyl}methoxy)-2-nitro-6,7-dihydro-5H-imidazo[2,1-b][1,3]oxazine]
Microsomes (% remaining, 1 h) Human [1]: 97%
melting point: 182 to 184 °C
AUC lung [2]: 155 µg·h/mL
Kp [2]: 1.1
Microsomes (% remaining, 1 h) Mouse [3]: 86%
Solubility [4]: 30 µg/mL (≈ 66 µM)

O=[N+]([O-])c1cn2c(n1)OC[C@@H](OCc1ccc(-c3ccc(C(F)(F)F)nc3)cc1F)C2 [Compound 23, (6S)-6-({2-Fluoro-4-[6-(trifluoromethyl)-3-pyridinyl]benzyl}oxy)-2-nitro-6,7-dihydro-5H-imidazo[2,1-b][1,3]oxazine]
Microsomes (% remaining, 1 h) Human [1]: 96%
melting point: 195 to 198 °C
AUC lung [2]: 55.4 µg·h/mL
Cmax [2]: 1560 ng/mL
half-life [2]: 4.9 h
Kp [2]: 2.5
Microsomes (% remaining, 1 h) Mouse [3]: 78%
solubility at 15 min [4]: 5.7 µg/mL (≈ 13 µM)

O=[N+]([O-])c1cn2c(n1)OC[C@@H](OCc1ccc(-c3ccc(OC(F)(F)F)cc3)nn1)C2 [Compound 24, (6S)-2-Nitro-6-({6-[4-(trifluoromethoxy)phenyl]-3-pyridazinyl}methoxy)-6,7-dihydro-5H-imidazo[2,1-b][1,3]oxazine]
Microsomes (% remaining, 1 h) Human [1]: 94%
melting point: 194 °C (dec.)
AUC lung [2]: 93.9 µg·h/mL
Cmax [2]: 3560 ng/mL
Microsomes (% remaining, 1 h) Mouse [3]: 92%
Solubility [4]: 6.1 µg/mL (≈ 13.9 µM)

O=[N+]([O-])c1cn2c(n1)OC[C@@H](OCc1ccc(-c3ccc(OC(F)(F)F)c(Cl)c3)nc1)C2 [Compound 28, (6S)-6-({6-[3-Chloro-4-(trifluoromethoxy)phenyl]-3-pyridinyl}methoxy)-2-nitro-6,7-dihydro-5H-imidazo[2,1-b][1,3]oxazine]
Microsomes (% remaining, 1 h) Human [1]: 87%
melting point: 169 to 171 °C
AUC lung [2]: 284 µg·h/mL
Cmax [2]: 2890 ng/mL
half-life [2]: 21.7 h
Microsomes (% remaining, 1 h) Mouse [3]: 77%
Solubility [4]: 0.18 µg/mL (≈ 0.382 µM)

O=[N+]([O-])c1cn2c(n1)OC[C@@H](OCC#Cc1ccc(-c3ccc(OC(F)(F)F)cc3)cc1)C2 [Compound 30, (6S)-2-Nitro-6-({3-[4′-(trifluoromethoxy)[1,1′-biphenyl]-4-yl]-2-propynyl}oxy)-6,7-dihydro-5H-imidazo[2,1-b][1,3]oxazine]
Microsomes (% remaining, 1 h) Human [1]: 93%
melting point: 192 to 194 °C
AUC lung [2]: 13.6 µg·h/mL
Kp [2]: 1.4
Microsomes (% remaining, 1 h) Mouse [3]: 85%
Solubility [4]: 0.07 µg/mL (≈ 0.152 µM)
In vivo efficacy vs PA-824, Acute [6]: 89

O=[N+]([O-])c1cn2c(n1)OC[C@@H](OCc1ccc(OC(F)(F)F)cc1)C2 [PA-824, reference compound]
Microsomes (% remaining, 1 h) Human [1]: 82%
AUC lung [2]: 296 µg·h/mL
Cmax [2]: 5500 ng/mL
half-life [2]: 4.2 h
Kp [2]: 3.8
log reduction in CFU (chronic assay) [5]: ~2 log
log reductions in CFU (acute assay) ([6]; oral 100 mg/kg, lungs, vs vehicle, 'up to'): 2.5-3 log
